In patent publication US7592326B2, “Method for stimulating the immune, inflammatory or neuroprotective response” (priority 2004, dated 2009):

Assays:
[1] = test system: cytokine mRNA in whole lung; experiment: Cytokine mRNA levels in whole lung homogenates (quantitative PCR); type: in vivo, Balb/c mice
[2] = test system: Primary hippocampal cells; experiment: Staurosporine-induced cell death in primary hippocampal cultures (CellTiter 96 AQueous Assay); type: cell-based
Protocol: To assess the role of cyclic dinucleotides in modulating the neurological response, i.e., prevent cell death induced by staurosporine (STS) in primary hippocampal nerve cells, the effects of c-di-GMP on hippocampal cells was analyzed. Primary hippocampal cells were prepared according to previously described methods (Pereira et al., 1993). Briefly, the hippocampi were dissected from the brain of 18-day-old fetal rats. Following enzymatic and mechanical dissociation, cells were plated at a density of 100,000 cells/well in 96-well plates pre-coated with matrigel. At the 7th day after plating, cultures were subjected to one of the following treatments: (i) vehicle (24 h), (ii) STS (100 nM, 22 h), (iii) c-di-GMP (24 h), (iv) c-di-GMP (2 h) followed by c-di-GMP -plus-STS (22 h), (v) c-di-GMP -plus-STS (24 h), or (vi) STS (2 h) followed by c-di-GMP -plus-STS (22 h). At the end of the treatments, cell viability was analyzed using CellTiter 96® AQueous Assay (Promega). The assay involves the spectrophotometric measurement (at 490 nm) of the mitochondrial conversion of a tetrazolium dye into a colorful product. The absorbance of the assay correlates with the number of metabolically active cells.

S. aureus strain NCH57 = experiment: Mouse S. aureus pneumonia (proposed); type: in vivo; conditions: 200 nmol 24- and 48 hours prior; 1×10^9 CFU NCH57
[3] = test system: C. albicans strain SC5314; experiment: Systemic C. albicans infection in mice (proposed); type: in vivo, Candida albicans; conditions: A/J and C57BL/6J mice, 3×10^5 blastospores i.v.
Protocol: To show the efficacy of c-di-GMP in inhibiting C. albicans infection, 8- to 12-week-old A/J and C57BL/6J mice are infected with C. albicans strain SC5314. The blastospores are washed twice in phosphate-buffered saline (PBS) and resuspended in PBS at the required density. For experimental infections, A/J and C57BL/6J mice are inoculated via the tail vein with 200 μl of a suspension containing 3×10^5 C. albicans blastospores in PBS. One group of mice will be pretreated with c-di-GMP (intranasally, i.p., i.m., s.q.). Mice are to be closely monitored for clinical signs of disease, such as lethargy, loss of appetite, hunched back, and ruffled fur.
The levels of TNF-α and IL-6 in tissue extracts are determined using “two-site sandwich” assays with commercially available enzyme-linked immunosorbent assay (ELISA) kits (BD Biosciences). Tissue extracts are prepared by homogenization in lysis buffer (20 mM Tris [pH 7.5], 0.3 M NaCl, 2% sodium deoxycholate, 2% Triton X-100, protease inhibitor cocktail [Roche Diagnostics]). Additional determinations of the levels of 32 cytokines and chemokines are carried out by using cardiac tissue extracts and RayBio mouse cytokine array II membranes (RayBiotech Inc., Norcross, Ga.). […] All values are normalized to the protein content and determined using the Bradford reagent.

S. aureus = conditions: cited from earlier work
DCs = experiment: DC apoptosis (FITC-Annexin V/PI double staining); type: cell-based, human; conditions: 24 h
Protocol: FITC-Annexin V/Propidium Iodure (PI) double staining was used to detect apoptosis of DCs treated with c-di-GMP. Immature and mature DCs, untreated or treated with c-di-GMP for 24 h, were harvested and washed twice with ice cold PBS; specific binding of FITC-annexin V and staining with PI was performed with an apoptosis detection kit accordingly to the manufacturer's instructions. The cells were then analyzed by flow cytometry.

[4] = test system: human colon carcinoma cells; conditions: synthetic c-di-GMP; cited from earlier work
C. neoformans strain 52 = experiment: Murine model of C. neoformans infection (proposed procedure)

With `Nc1nc(=O)c2ncn([C@@H]3OC4COP(=O)(O)O[C@H]5[C@@H](O)[C@H](n6cnc7c(=O)nc(N)[nH]c76)O[C@@H]5COP(=O)(O)OC4C3O)c2[nH]1` (stereo partly drawn) [c-di-GMP, Bis(3′→5′)-cyclic diguanylic acid] the “IL-12 p40 levels vs control c-GMP” value ([1]; 24 and 48 hrs post bacterial challenge) was “increased”, the “MIP-2 mRNA, increase over infected control (c-GMP)” value ([1]; 24 hr post Klebsiella challenge, p<0.05, FIG. 17D) was 2 fold and the “IP-10 and IFN-gamma mRNA levels vs control c-GMP” value ([1]; 24 hrs post K. pneumoniae, p<0.05) was “significantly higher”. The “type 1 cytokines IL-12 p40, IFN-gamma, and IP-10 in the lungs” value ([1]; i.n. pre-treatment, time 0 (pre-infection)) was “induction”, the “induction of TNF-α in response to i.t. bacterial administration” value ([1]; pretreatment, data not shown) was “did not significantly alter” and the “number of metabolic active cells vs STS alone” value ([2]; 0.1-10 μM applied together with or after STS) was “on average higher”. The “STS-induced cell death, pre-treatment” value ([2]; 0.1-10 μM, 2 h before STS 100 nM, FIG. 5) was “prevented the STS-induced cell death”, the “toxicity to primary hippocampal cultures” value ([2]; 24 h) was “not toxic” and the survival (S. aureus strain NCH57) was “greater survival”. For the same compound, the clinical outcome [3] was “less mortality”, the “colonization of the mouse mammary glands by S. aureus” value (S. aureus; intramammary, at time of challenge and 4 h post-inoculation) was “significantly decreased” and the “in-vivo dose giving maximal benefit” value (S. aureus; previously published studies) was 200 nmoles/animal. For the same compound, the “Early apoptosis (% of annexin V^+/PI^− cells)” value (DCs; cdiGMP 5 μM) was 23%, the “Late apoptosis (% of annexin V^+/PI^+ cells)” value (DCs; cdiGMP 5 μM) was 36% and the “Early apoptosis (% of annexin V^+/PI^− cells)” value (DCs; cdiGMP 50 μM) was 31%. For the same compound, the “Late apoptosis (% of annexin V^+/PI^+ cells)” value (DCs; cdiGMP 50 μM) was 40%, the “Early apoptosis (% of annexin V^+/PI^− cells)” value (DCs; cdiGMP 100 μM) was 18% and the “Late apoptosis (% of annexin V^+/PI^+ cells)” value (DCs; cdiGMP 100 μM) was 42%. The “effect on DC apoptosis” value (DCs; immature and mature DCs) was “did not appear to have any effect”, the “basal and growth factor induced proliferation of human colon carcinoma cells” value [4] was “inhibits” and the “pathogen burden compared with controls” value (C. neoformans strain 52; C57BL/6 mice) was “significantly reduced”. For the same compound, the pulmonary eosinophilia (C. neoformans strain 52; C57BL/6 mice) was “significantly reduced”, the “IFN production and total numbers of CD4^+/IFN-γ^+ cells” value (C. neoformans strain 52; lung, C57BL/6 mice) was “increased” and the survival (C. neoformans strain 52; oral, intranasal, i.p., i.v., s.q., or i.m. administration) was “increase survival”.
